Results published in PubChem BioAssay (NCI).
Where “and” joins values, the source holds several entries; their conditions need not be identical. Equal entries are not always repeated.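 Each compound was tested at five concentrations against cells in 96-well plates for 48 hours. GI50: concentration for 50% inhibition of growth. TGI: total growth inhibition.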

Legend:
Experiment in all cases: NCI-60 cell line screen, 48 h
[1] = test system: SF-295 CNS
[2] = test system: M14 melanoma
[3] = test system: MCF7 breast
[4] = test system: UO-31 renal
[5] = test system: SK-OV-3 ovarian
[6] = test system: NCI-H23 lung
[7] = test system: SNB-75 CNS
[8] = test system: ACHN renal
[9] = test system: MDA-MB-435
[10] = test system: SNB-19 CNS
[11] = test system: HOP-92 NSCLC
[12] = test system: A498 renal
[13] = test system: HCT-15 colon
[14] = test system: IGROV1 ovarian
[15] = test system: SK-MEL-28 melanoma
[16] = test system: DU-145 prostate
[17] = test system: SK-MEL-2 melanoma
[18] = test system: 786-0 renal
[19] = test system: HL-60(TB) leukemia
[20] = test system: MOLT-4 leukemia
[21] = test system: HCC-2998 colon
[22] = test system: COLO 205 colon
[23] = test system: SN12C renal
[24] = test system: UACC-62 melanoma
[25] = test system: SK-MEL-5 melanoma
[26] = test system: SW-620 colon
[27] = test system: MDA-MB-231 breast
[28] = test system: HT29 colon
[29] = test system: U251 CNS
[30] = test system: HOP-62 NSCLC
[31] = test system: SF-268 CNS
[32] = test system: NCI-H460 lung
[33] = test system: OVCAR-3 ovarian
[34] = test system: RPMI-8226 leukemia
[35] = test system: HS 578T breast
[36] = test system: K-562 leukemia
[37] = test system: OVCAR-5 ovarian
[38] = test system: PC-3 prostate
[39] = test system: UACC-257 melanoma
[40] = test system: BT-549 breast
[41] = test system: A549 NSCLC
[42] = test system: OVCAR-8 ovarian
[43] = test system: RXF 393 renal
[44] = test system: CCRF-CEM leukemia
[45] = test system: HCT-116 colon
[46] = test system: NCI/ADR-RES ovarian
[47] = test system: T-47D breast
[48] = test system: OVCAR-4 ovarian
[49] = test system: EKVX NSCLC
[50] = test system: SF-539 CNS
[51] = test system: CAKI-1 renal
[52] = test system: NCI-H522 lung
[53] = test system: TK-10 renal
[54] = test system: NCI-H226 lung
[55] = test system: KM12 colon
[56] = test system: MALME-3M melanoma
[57] = test system: SR leukemia

In the case of `N#Cc1c(-c2ccccc2)[nH]c(=O)n(C2OC(CO)C(O)C(O)C2O)c1=O` (stereo not drawn), the TGI [1] is reported as greater than 100 µM, the TGI [2] is reported as greater than 100 µM and the TGI [3] is reported as greater than 100 µM. It also gave a TGI [4] greater than 100 µM, a TGI [5] greater than 100 µM and a TGI [6] greater than 100 µM. The TGI [7] was greater than 100 µM, the TGI [8] was greater than 100 µM and the TGI [9] was greater than 100 µM. For the same compound, the TGI [10] was greater than 100 µM, the TGI [11] was greater than 100 µM and the TGI [12] was greater than 100 µM. For the same compound, the TGI [13] was greater than 100 µM, the GI50 [14] was > 100 µM and 21.3 µM and the TGI [14] was greater than 100 µM. It also gave a TGI [15] greater than 100 µM, a TGI [16] greater than 100 µM and a TGI [17] greater than 100 µM. The TGI [18] was greater than 100 µM, the GI50 [19] was 47.4 µM and > 100 µM and the TGI [19] was greater than 100 µM. It also gave a TGI [20] greater than 100 µM, a TGI [21] greater than 100 µM and a TGI [22] greater than 100 µM. It also gave a TGI [23] greater than 100 µM, a TGI [24] greater than 100 µM and a TGI [25] greater than 100 µM. The TGI [26] was greater than 100 µM, the TGI [27] was greater than 100 µM and the TGI [28] was greater than 100 µM. For the same compound, the TGI [29] was greater than 100 µM, the TGI [30] was greater than 100 µM and the TGI [31] was greater than 100 µM. For the same compound, the TGI [32] was greater than 100 µM, the TGI [33] was greater than 100 µM and the TGI [34] was greater than 100 µM. It also gave a TGI [35] greater than 100 µM, a TGI [36] greater than 100 µM and a TGI [37] greater than 100 µM. For the same compound, the TGI [38] was greater than 100 µM, the TGI [39] was greater than 100 µM and the TGI [40] was greater than 100 µM. It also gave a TGI [41] greater than 100 µM, a TGI [42] greater than 100 µM and a TGI [43] greater than 100 µM. The TGI [44] was greater than 100 µM, the TGI [45] was greater than 100 µM and the TGI [46] was greater than 100 µM. It also gave a TGI [47] greater than 100 µM, a TGI [48] greater than 100 µM and a TGI [49] greater than 100 µM. The TGI [50] was greater than 100 µM, the TGI [51] was greater than 100 µM and the GI50 [52] was 27.6 µM and > 100 µM. For the same compound, the TGI [52] was 63.5 µM and > 100 µM, the TGI [53] was greater than 100 µM and the GI50 [54] was > 100 µM and 45.4 µM. It also gave a TGI [54] greater than 100 µM and a TGI [55] greater than 100 µM.

In the case of `CN(CCNCc1cn(C)c2c1ccc1ccccc12)CCNCc1cn(C)c2c1ccc1ccccc12`, the TGI [2] is reported as 0.904 µM, the TGI [6] is reported as 2.67 µM and the TGI [8] is reported as 2.97 µM. The TGI [56] was 3.61 µM, the TGI [9] was 2.86 µM and the TGI [10] was 2.3 µM. For the same compound, the TGI [11] was 3.38 µM, the TGI [12] was 13.9 µM and the TGI [57] was 2.88 µM. It also gave a TGI [13] of 2.5 µM, a TGI [14] of 3.24 µM and a TGI [15] of 2.84 µM. The TGI [16] was 2.76 µM, the TGI [18] was 1.83 µM and the TGI [20] was 2.81 µM. For the same compound, the TGI [22] was 2.33 µM, the TGI [26] was 2.57 µM and the TGI [27] was 2.99 µM. For the same compound, the TGI [28] was 2.77 µM, the TGI [29] was 2.11 µM and the TGI [32] was greater than 100 µM. For the same compound, the TGI [34] was greater than 100 µM, the TGI [38] was 2.57 µM and the TGI [39] was 3.03 µM. For the same compound, the TGI [41] was 2.31 µM, the TGI [42] was 3.34 µM and the TGI [43] was 1.71 µM. It also gave a TGI [44] of 2.21 µM, a TGI [45] of 2.33 µM and a TGI [46] of 2.54 µM. For the same compound, the TGI [48] was 2.64 µM, the TGI [50] was 3.16 µM and the TGI [52] was 2.86 µM. For the same compound, the TGI [55] was 2.32 µM.
